Active and inactive are the calls of the source. The calls are words filed in the database; no cut-off is given here.
Experiments:
RAW264.7 [1] = test: Anti-inflammatory activity against mouse RAW264.7 cells transfected with CTSL siRNA assessed as inhibition of LPS-induced IL-6 level by Western blot analysis; assay type: functional, cell-based
[2] = AUC (0 to t) in Sprague-Dawley rat at 3.5 mg/kg, ip measured for 24 hrs by LC-MS/MS analysis; assay type: ADME, organism-based; conditions: in vivo
Mus musculus [3] = test: (§1) Anti-inflammatory activity in C57BL/6 mouse model of LPS-induced acute lung injury assessed as decrease in wet to dry ratio in lung at 10 mg/kg, ip treated for 3 days followed by LPS treatment after 1 hr post-compound administration on fourth day measured after 18 hrs post-LPS treatment; assay type: functional, organism-based; conditions: time 91.0 hrs
[4] = Cmax in Sprague-Dawley rat at 3.5 mg/kg, po measured for 24 hrs by LC-MS/MS analysis; assay type: ADME, organism-based; conditions: in vivo
RAW264.7 [5] = test: Anti-inflammatory activity against mouse RAW264.7 cells assessed as inhibition of LPS-induced IL-6 level
[6] = AUC (0 to t) in Sprague-Dawley rat at 3.5 mg/kg, po measured for 24 hrs by LC-MS/MS analysis; assay type: ADME, organism-based; conditions: in vivo
[7] = AUC (0 to infinity) in Sprague-Dawley rat at 3.5 mg/kg, iv measured for 24 hrs by LC-MS/MS analysis; assay type: ADME, organism-based; conditions: in vivo
[8] = Cmax in Sprague-Dawley rat at 3.5 mg/kg, ip measured for 24 hrs by LC-MS/MS analysis; assay type: ADME, organism-based; conditions: in vivo
[9] = Half life in Sprague-Dawley rat at 3.5 mg/kg, ip measured for 24 hrs by LC-MS/MS analysis; assay type: ADME, organism-based; conditions: in vivo
HBE [10] = test: Anti-inflammatory activity against HBE cells assessed as inhibition of LPS-induced p-Ikappa-Balpha level pretreated for 30 mis followed by LPS treatment for 16 hrs by Western blot analysis; assay type: functional, cell-based; conditions: Homo sapiens, dose 0.5-5 µM, time 16.5 hrs
RAW264.7 [11] = test: Anti-inflammatory activity against mouse RAW264.7 cells assessed as inhibition of LPS-induced p38 phosphorylation at 50 to 500 nM by Western blot analysis; assay type: functional, cell-based; conditions: dose 50-500 nM
RAW264.7 [12] = test: Anti-inflammatory activity against mouse RAW264.7 cells assessed as inhibition of LPS-induced IL-1beta level
RAW264.7 [13] = test: Anti-inflammatory activity against mouse RAW264.7 cells assessed as inhibition of LPS-induced COX-2 level by Western blot analysis; assay type: functional, cell-based; conditions: dose 50-500 nM
Mus musculus [14] = test: In vivo inhibition of mature CTSL in lung of C57BL/6 mouse model of LPS-induced acute lung injury at 10 to 20 mg/kg, ip treated for 3 days followed by LPS treatment after 1 hr post-compound administration on fourth day measured after 18 hrs post-LPS treatment by Western blot analysis; assay type: functional, organism-based; conditions: dose 10-20 mg/kg, time 91.0 hrs
[15] = target: Non-receptor tyrosine-protein kinase TYK2 (Homo sapiens, UniProt P29597); test: Inhibition of TYK2 (unknown origin) using TK-biotin as substrate incubated for 120 mins in presence of ATP by HTRF assay
Sequence of Non-receptor tyrosine-protein kinase TYK2 (P29597 whole entry): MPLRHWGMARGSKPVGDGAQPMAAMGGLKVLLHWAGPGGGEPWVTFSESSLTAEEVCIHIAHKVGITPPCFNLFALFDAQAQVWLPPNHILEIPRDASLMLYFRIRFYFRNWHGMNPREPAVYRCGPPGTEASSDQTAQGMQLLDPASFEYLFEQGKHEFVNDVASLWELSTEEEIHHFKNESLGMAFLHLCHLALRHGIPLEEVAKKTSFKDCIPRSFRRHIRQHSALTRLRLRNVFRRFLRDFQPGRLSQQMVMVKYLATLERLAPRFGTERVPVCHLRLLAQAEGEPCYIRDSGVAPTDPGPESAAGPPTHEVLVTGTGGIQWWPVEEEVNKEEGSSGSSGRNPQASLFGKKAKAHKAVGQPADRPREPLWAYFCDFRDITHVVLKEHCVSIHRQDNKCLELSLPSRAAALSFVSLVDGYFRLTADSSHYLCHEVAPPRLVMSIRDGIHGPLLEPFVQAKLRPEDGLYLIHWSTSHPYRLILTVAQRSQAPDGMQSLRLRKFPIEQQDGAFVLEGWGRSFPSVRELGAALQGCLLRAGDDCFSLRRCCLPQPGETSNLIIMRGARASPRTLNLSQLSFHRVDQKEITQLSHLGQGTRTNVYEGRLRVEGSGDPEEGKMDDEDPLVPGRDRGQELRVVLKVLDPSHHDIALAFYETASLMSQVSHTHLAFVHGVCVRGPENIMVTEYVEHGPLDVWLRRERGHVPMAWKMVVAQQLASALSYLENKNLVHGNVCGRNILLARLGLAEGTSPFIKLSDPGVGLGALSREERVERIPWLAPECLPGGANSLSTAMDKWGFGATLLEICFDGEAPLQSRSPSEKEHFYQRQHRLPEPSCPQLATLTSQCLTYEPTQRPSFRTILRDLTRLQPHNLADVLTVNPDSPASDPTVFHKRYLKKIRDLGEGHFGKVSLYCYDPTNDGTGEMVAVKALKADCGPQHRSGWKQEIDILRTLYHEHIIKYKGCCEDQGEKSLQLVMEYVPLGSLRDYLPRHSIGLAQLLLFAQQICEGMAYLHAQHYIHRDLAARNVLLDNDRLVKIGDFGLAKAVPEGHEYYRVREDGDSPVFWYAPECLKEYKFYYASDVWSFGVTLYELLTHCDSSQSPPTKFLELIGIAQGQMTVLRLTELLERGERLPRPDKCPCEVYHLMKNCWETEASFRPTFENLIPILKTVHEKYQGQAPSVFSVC

HBE [16] = test: Anti-inflammatory activity against HBE cells assessed as inhibition of LPS-induced IL-6 level pretreated for 30 mins followed by LPS treatment for 24 hrs by ELISA; conditions: Homo sapiens, dose <= 5.0 µM, time 24.5 hrs
Mus musculus [17] = test: as §1, with “decrease in TNF-alpha mRNA level in lung” for “decrease in wet to dry ratio in lung”, “post-LPS treatment by RT-qPCR analysis” for “post-LPS treatment”; assay type: functional, organism-based; conditions: time 91.0 hrs
RAW264.7 [18] = test: Anti-inflammatory activity against mouse RAW264.7 cells assessed as inhibition of LPS-induced iNOS level by Western blot analysis; assay type: functional, cell-based; conditions: dose 50-500 nM
Mus musculus [19] = test: as §1, with “decrease in alveolar hemorrhage in lung” for “decrease in wet to dry ratio in lung”, “post-LPS treatment by H and E staining based analysis” for “post-LPS treatment”; assay type: functional, organism-based; conditions: time 91.0 hrs
Mus musculus [20] = test: as §1, with “decrease in pulmonary edema in lung” for “decrease in wet to dry ratio in lung”, “post-LPS treatment by H and E staining based analysis” for “post-LPS treatment”; assay type: functional, organism-based; conditions: time 91.0 hrs
[21] = AUC (0 to t) in Sprague-Dawley rat at 3.5 mg/kg, iv measured for 24 hrs by LC-MS/MS analysis; assay type: ADME, organism-based; conditions: in vivo
[22] = target: Tyrosine-protein kinase JAK2 (Homo sapiens, UniProt O60674); test: Inhibition of JAK2 (unknown origin) using TK-biotin as substrate incubated for 30 mins in presence of ATP by HTRF assay
Sequence of Tyrosine-protein kinase JAK2 (O60674 whole entry): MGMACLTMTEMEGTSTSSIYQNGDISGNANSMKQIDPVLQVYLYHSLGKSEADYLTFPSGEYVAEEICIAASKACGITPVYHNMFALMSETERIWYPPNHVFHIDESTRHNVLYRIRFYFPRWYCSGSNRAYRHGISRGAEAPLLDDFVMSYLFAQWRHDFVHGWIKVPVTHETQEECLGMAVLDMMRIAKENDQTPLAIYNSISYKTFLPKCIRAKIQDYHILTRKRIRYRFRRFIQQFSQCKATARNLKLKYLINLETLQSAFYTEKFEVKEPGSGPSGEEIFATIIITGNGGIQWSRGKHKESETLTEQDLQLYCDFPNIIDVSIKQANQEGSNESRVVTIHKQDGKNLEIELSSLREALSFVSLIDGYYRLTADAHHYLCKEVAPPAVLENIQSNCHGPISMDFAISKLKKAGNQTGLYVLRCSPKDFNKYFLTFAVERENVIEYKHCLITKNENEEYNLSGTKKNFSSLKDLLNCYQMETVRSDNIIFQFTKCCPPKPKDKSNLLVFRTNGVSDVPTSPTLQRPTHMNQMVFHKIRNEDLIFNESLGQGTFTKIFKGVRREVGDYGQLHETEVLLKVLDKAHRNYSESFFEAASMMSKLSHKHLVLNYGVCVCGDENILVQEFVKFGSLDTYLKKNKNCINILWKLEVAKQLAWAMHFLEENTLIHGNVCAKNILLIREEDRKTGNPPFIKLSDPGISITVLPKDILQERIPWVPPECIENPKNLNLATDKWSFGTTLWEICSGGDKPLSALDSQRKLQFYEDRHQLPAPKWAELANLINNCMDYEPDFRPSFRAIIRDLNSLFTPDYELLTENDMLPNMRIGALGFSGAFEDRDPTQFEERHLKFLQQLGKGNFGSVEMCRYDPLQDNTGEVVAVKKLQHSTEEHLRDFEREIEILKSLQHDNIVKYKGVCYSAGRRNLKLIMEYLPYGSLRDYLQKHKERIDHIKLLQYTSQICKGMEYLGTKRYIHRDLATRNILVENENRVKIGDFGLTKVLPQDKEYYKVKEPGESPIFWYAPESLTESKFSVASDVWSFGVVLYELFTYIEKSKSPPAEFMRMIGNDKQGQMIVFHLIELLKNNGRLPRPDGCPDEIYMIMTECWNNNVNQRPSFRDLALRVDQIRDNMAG

[23] = Oral bioavailability in Sprague-Dawley rat at 3.5 mg/kg measured for 24 hrs by LC-MS/MS analysis; assay type: ADME, organism-based; conditions: in vivo
HBE [24] = test: Anti-inflammatory activity against HBE cells assessed as inhibition of LPS-induced IL-8 level pretreated for 30 mins followed by LPS treatment for 24 hrs by ELISA; conditions: Homo sapiens, dose <= 5.0 µM, time 24.5 hrs
Mus musculus [25] = test: Anti-inflammatory activity in C57BL/6 mouse model of LPS-induced acute lung injury assessed as decrease in total protein concentration in BALF at 10 mg/kg, ip treated for 3 days followed by LPS treatment after 1 hr post-compound administration on fourth day measured after 18 hrs post-LPS treatment; assay type: functional, organism-based; conditions: time 91.0 hrs
[26] = Anti-inflammatory activity against HBE cells assessed as inhibition of LPS-induced IL-6 level at 5 uM pretreated for 30 mins followed by LPS treatment for 24 hrs by ELISA relative to control; assay type: functional; conditions: Homo sapiens, time 24.5 hrs
RAW264.7 [27] = test: Anti-inflammatory activity against mouse RAW264.7 cells assessed as inhibition of LPS-induced IL-1beta mRNA level at 50 to 500 nM by RT-qPCR analysis; assay type: functional, cell-based; conditions: dose 50-500 nM
RAW264.7 [28] = test: Anti-inflammatory activity against mouse RAW264.7 cells assessed as inhibition of LPS-induced TNF-alpha mRNA level at 50 to 500 nM by RT-qPCR analysis; assay type: functional, cell-based; conditions: dose 50-500 nM
Procathepsin L = Procathepsin L (Homo sapiens, UniProt P07711); test: Induction of thermal stabilization of pro-CTSL in protein lysate extracted from human THP-1 cells pretreated for 6 hrs followed by heat exposure at 37 to 62 degreeC for 3 mins by CETSA; assay type: subcellular; conditions: time 363.0 min
Sequence of Procathepsin L (P07711 114-333 limits assumed): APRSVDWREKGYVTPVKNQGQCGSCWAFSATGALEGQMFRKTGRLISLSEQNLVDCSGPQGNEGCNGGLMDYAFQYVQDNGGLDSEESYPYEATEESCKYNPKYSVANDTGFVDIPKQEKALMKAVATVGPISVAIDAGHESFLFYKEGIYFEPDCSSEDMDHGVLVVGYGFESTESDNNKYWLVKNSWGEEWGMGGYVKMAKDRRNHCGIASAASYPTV

Mus musculus [29] = test: as §1, with “decrease in IL-6 mRNA level in lung” for “decrease in wet to dry ratio in lung”, “post-LPS treatment by RT-qPCR analysis” for “post-LPS treatment”; assay type: functional, organism-based; conditions: time 91.0 hrs
RAW264.7 [30] = test: Cytotoxicity against mouse RAW264.7 cells assessed as cell viability at 0.5 to 5 uM; assay type: toxicity, cell-based; conditions: raw264.7, 5 µM, dose 0.5-5 µM
RAW264.7 [31] = test: Anti-inflammatory activity against mouse RAW264.7 cells assessed as inhibition of LPS-induced IL-1beta level at 50 to 500 nM; assay type: functional, cell-based; conditions: dose 50-500 nM
Mus musculus [32] = test: as §1, with “decrease in inflammatory cell infiltration in lung” for “decrease in wet to dry ratio in lung”, “post-LPS treatment by H and E staining based analysis” for “post-LPS treatment”; assay type: functional, organism-based; conditions: time 91.0 hrs
cells = conditions: Homo sapiens, HBE
RAW264.7 [33] = test: Anti-inflammatory activity against mouse RAW264.7 cells assessed as inhibition of LPS-induced IL-6 mRNA level at 50 to 500 nM by RT-qPCR analysis; assay type: functional, cell-based; conditions: dose 50-500 nM

AUC(0-t) at 24 h [2]: 407 ng·h/mL
Cmax [4]: 65.2 ng/mL
IC50 (RAW264.7 [5]): 50.1 nM
AUC(0-t) at 24 h [6]: 157 ng·h/mL
AUC(0-inf) [7]: 680 ng·h/mL
Cmax [8]: 193 ng/mL
half-life [9]: 4.73 h
IC50 (RAW264.7 [12]): 91.2 nM
IC50 [15]: 173 nM
AUC(0-t) at 24 h [21]: 633 ng·h/mL
IC50 [22]: 5.25 nM
bioavailability [23]: 24.9%
Activity (Procathepsin L): Active
IC50 (cells): 1350 nM
SMILES: Cl.Cn1cc(-c2ccnc(Nc3cccc(N)c3)n2)c2ccccc21
inhibition (RAW264.7 [1]): inactive
Activity (Mus musculus [3]): Active
inhibition (HBE [10]): Dose-dependent-effect
inhibition (RAW264.7 [11]): Active; Result Indicates Compound Suppresses Mapk Pathway
inhibition (RAW264.7 [13]): Dose-dependent-effect
inhibition (Mus musculus [14]): Active
inhibition (HBE [16]): Dose-dependent-effect
Activity (Mus musculus [17]): Active
inhibition (RAW264.7 [18]): Dose-dependent-effect
Activity (Mus musculus [19]): Active
Activity (Mus musculus [20]): Active
inhibition (HBE [24]): Dose-dependent-effect
Activity (Mus musculus [25]): Active
inhibition at 5 µM [26]: 83%
inhibition (RAW264.7 [27]): Active
inhibition (RAW264.7 [28]): Active
Activity (Mus musculus [29]): Active
Activity (RAW264.7 [30]): Non-toxic
inhibition (RAW264.7 [31]): Active
Activity (Mus musculus [32]): Active
inhibition (RAW264.7 [33]): Active

Source: ChEMBL document CHEMBL6087451, “Design, Synthesis, and Biological Evaluation of 2-Arylaminopyrimidine Derivatives as Dual Cathepsin L and JAK Inhibitors for the Treatment of Acute Lung Injury” (J Med Chem, 2025)
